Measured values taken from US6486166B1, “Suppression of cyclin kinase 2 activity for prevention and treatment of DNA viral infections” (Board of Regents, The University of Texas, priority 1997, dated 2002).
“Also recorded” adds a separate entry of the source. Values belong to the compound of their own block, whether it stands above or below them.

Assays:
[1] = tested on: non-infected LU cells; details: human, 15 μM
[2] = tested on: human lung fibroblasts; details: 100 μg/ml (0.75 mM); cited from earlier work
[3] = tested on: HCMV-infected subconfluent LU cells; assay: cell cycle distribution (DNA content by flow cytometry) after HCMV infection of subconfluent LU cells with PAA; type: cell-based, human; details: for Percent Cells in phase G0/G1 / Percent Cells in phase G2/M / Percent Cells in phase S: HCMV 5 PFU/cell + PAA 100 μg/ml
[4] = tested on: HCMV; assay: infectious HCMV yield by plaque assay; type: cell-based, Human cytomegalovirus strain AD169
[5] = tested on: HCMV; assay: HCMV DNA abundance in infected LU cells by slot blot hybridization; type: cell-based, Human cytomegalovirus strain AD169; details: density-arrested LU cells, 72 hr post-infection
[6] = tolerated dose in animals; type: in vivo; details: printed 'tolerated by rate'
From the text: The preferred dosage of inhibitor of cyclin E/Cdk2 activity in a parenteral administration will vary, depending upon the extent of the virus infection, the severity of the symptoms associated with the infection and patient age, weight and medical history. The number of administrations of the parenteral composition will also vary according to the response of the individual patient to the treatment. In one exemplary application. the dosage of inhibitor of cyclin E/Cdk2 activity would vary with the type of disease and the route of administration. Further studies with animal models of infection will completely define projected doses. […] Weaker Cdk2 inhibitors will be needed at higher concentrations, and stronger, at lower.

[7] = tested on: HCMV-infected LU cells; assay: hematoxylin and eosin staining of HCMV-infected LU cells; details: 15 μM; 96 hr after infection
[8] = tested on: non-infected LU cells; assay: effects on non-infected LU cells (morphology, flow cytometry, BrdU incorporation); details: 15 μM for 96 hr

cells able to incorporate bromodeoxyuridine (BrdU) after removal of the inhibitor [1]: more than 70%
SMILES: Cn1cnc2c(NCc3ccccc3)nc(NCCO)nc21 [olomoucine]

SMILES: O=C(O)CP(=O)(O)O [PAA, phosphonoacetic acid]
effect on viral DNA replication [2]: blocks viral DNA replication
Percent Cells in phase G0/G1 ([3]; 0 hours after treatment): 93.3 (1.2) percent
Percent Cells in phase G2/M ([3]; 0 hours after treatment): 5.1 (1.0) percent
Percent Cells in phase S ([3]; 0 hours after treatment): 1.6 (0.2) percent
Percent Cells in phase G0/G1 ([3]; 24 hours after treatment): 97.2 (0.4) percent
Percent Cells in phase G2/M ([3]; 24 hours after treatment): 1.9 (0.3) percent
Percent Cells in phase S ([3]; 24 hours after treatment): 0.9 (0.1) percent
Percent Cells in phase G0/G1 ([3]; 48 hours after treatment): 97.1 (0.8) percent
Percent Cells in phase G2/M ([3]; 48 hours after treatment): 1.3 (0.4) percent
Percent Cells in phase S ([3]; 48 hours after treatment): 1.5 (0.4) percent
Percent Cells in phase G0/G1 ([3]; 72 hours after treatment): 97.2 (0.3) percent
Percent Cells in phase G2/M ([3]; 72 hours after treatment): 0.9 (0.1) percent
Percent Cells in phase S ([3]; 72 hours after treatment): 1.9 (0.3) percent
increase in DNA content after HCMV infection ([3]; subconfluent LU cells infected in the presence of PAA): no detectable increase in DNA content

SMILES: CC[C@H](CO)Nc1nc(NCc2ccccc2)c2ncn(C(C)C)c2n1 [roscovitine]
infectious HCMV yields reduced ([4]; 2.5 μM, 96 hr post-infection): > 90%
inhibition at 10 µM ([4]; Human betaherpesvirus 5, 96 h, read-out: inhibition of infectious HCMV yields): > 99.9%
HCMV DNA abundance reduced ([5]; 1 μM): ~50%
viral DNA abundance reduced ([5]; 10 μM): > 90%
tolerated dose [6]: 3 µg/kg
morphology of HCMV-infected cells [7]: clearly dying or dead
morphological changes of non-infected LU cells [8]: no morphological changes; also recorded: did not present with any obvious morphological changes
cell cycle state of non-infected cells ([8]; flow cytometry): arrested in G0/G1 or G2/M phase
